Patent publication US20160158200A1, “Combinations of Hepatitis C Virus Inhibitors” (priority 2013, published 2016)

System: HCV genotype-1a variant with glutamine 30 changed to glutamate in the NS5A protein
Type: cell-based
Conditions: test compound titrated with BMS-790052 fixed at 200 nM; genotype 1a Q30E replicon
Method in brief: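 Synergy was assessed by combining several fixed amounts of an NS5A-targeting compound with a titration of the second compound of interest.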

Row | Structure (SMILES) | Fold-Synergistic 1a (Q30E)
1 | CC(C)[C@H](NC(=O)c1ccccc1F)c1ncc(-c2ccc(-c3ccc(-c4cnc([C@@H](NC(=O)c5ccccc5F)C(C)C)[nH]4)cc3)cc2)[nH]1 [Compound P-63] | >100 fold
2 | CC(C)[C@H](NC(=O)c1ccccc1C(F)(F)F)c1ncc(-c2ccc(-c3ccc(-c4cnc([C@@H](NC(=O)c5ccccc5C(F)(F)F)C(C)C)[nH]4)cc3)cc2)[nH]1 [Compound S-69] | >100 fold
3 | CC(C)(C)[C@H](NC(=O)C1CCC(F)(F)CC1)c1ncc(C#Cc2ccc3cc(-c4cnc([C@@H](NC(=O)C5CCC(F)(F)CC5)C(C)(C)C)[nH]4)ccc3c2)[nH]1 [Compound B1] | >100 fold
4 | CC(C)(C)[C@H](NC(=O)C1CC2CCC(C1)C2(F)F)c1nc(-c2ccc(-c3ccc(-c4c[nH]c([C@@H](NC(=O)C5CC6CCC(C5)C6(F)F)C(C)(C)C)n4)cc3)cc2)c[nH]1 (some centres unmarked) [Compound P-44] | >100 fold
5 | CC(C)[C@H](NC(=O)C(C)(C)C)c1ncc(-c2ccc(-c3ccc(-c4cnc([C@@H](NC(=O)C(C)(C)C)C(C)C)[nH]4)c(OC(F)F)c3)cc2)[nH]1 [Compound Y-11] | >100 fold
6 | CC(C)(C)C(NC(=O)C1(CO)CCCOC1)c1nc(-c2ccc(-c3ccc(-c4c[nH]c(C(NC(=O)C5(CO)CCCOC5)C(C)(C)C)n4)cc3)cc2)c[nH]1 (mixture of isomers) [Compound Y-101] | >100 fold
7 | CC(C)(C)C(=O)N[C@H]1CCC[C@H]1c1nc(-c2ccc(-c3ccc(-c4c[nH]c([C@@H]5CCC[C@@H]5NC(=O)C(C)(C)C)n4)cc3)cc2)c[nH]1 [Compound L-107] | >100 fold
8 | CC(C)CCC(=O)N[C@H](c1ncc(-c2ccc(-c3ccc(-c4cnc([C@@H](NC(=O)CCC(C)C)C(C)C)[nH]4)cc3)cc2)[nH]1)C(C)C [Compound S-32] | >100 fold
9 | CC(C)[C@H](NC(=O)C(=O)c1ncccc1F)c1ncc(-c2ccc(-c3ccc(-c4cnc([C@@H](NC(=O)C(=O)c5ncccc5F)C(C)C)[nH]4)cc3)cc2)[nH]1 [Compound P-120] | >100 fold
10 | CC(C)(C)C(=O)C(=O)N[C@H](c1nc(-c2ccc(-c3ccc(-c4c[nH]c([C@@H](NC(=O)C(=O)C(C)(C)C)C(C)(C)C)n4)cc3)cc2)c[nH]1)C(C)(C)C [Compound W-238] | >100 fold
11 | CC(C)(C)[C@H](NC(=O)C1CC1(F)F)c1nc(-c2ccc(-c3ccc(-c4c[nH]c([C@@H](NC(=O)C5CC5(F)F)C(C)(C)C)n4)cc3)cc2)c[nH]1 (some centres unmarked) [Compound N-45a] | >100 fold
12 | CC(C)(C)OC(=O)NC1(C(=O)NC(c2nc(-c3ccc(-c4ccc(-c5c[nH]c(C(NC(=O)C6(NC(=O)OC(C)(C)C)CCC(F)(F)CC6)C(C)(C)C)n5)cc4)cc3)c[nH]2)C(C)(C)C)CCC(F)(F)CC1 [Compound L-49] | >100 fold
13 | COC(=O)NC(C(=O)N1CCCC1c1ncc(-c2ccc(-c3ccc(-c4cnc(C(NC(=O)C5CCC(F)(F)CC5)C(C)(C)C)[nH]4)cc3)cc2)[nH]1)C(C)C (centres unmarked) [Compound B-192] | >10 fold
14 | CC(C)CC(=O)NC1(c2ncc(-c3ccc(-c4ccc(-c5cnc(C6(NC(=O)CC(C)C)CCCCC6)[nH]5)cc4)cc3)[nH]2)CCCCC1.O=C(O)C(F)(F)F.O=C(O)C(F)(F)F [Compound N-24] | <10 fold
15 | CC(C)(C)[C@H](NC(=O)C1(CO)CC(F)(F)C1)c1nc(-c2ccc(-c3ccc(-c4c[nH]c([C@@H](NC(=O)C5(CO)CC(F)(F)C5)C(C)(C)C)n4)cc3)cc2)c[nH]1 [Compound N-153] | >100 fold
16 | CC(C)(C)OC(=O)NC1(C(=O)N[C@H](c2nc(-c3ccc(-c4ccc(-c5c[nH]c([C@@H](NC(=O)C6(NC(=O)OC(C)(C)C)CC6(F)F)C(C)(C)C)n5)cc4)cc3)c[nH]2)C(C)(C)C)CC1(F)F (single isomer, unassigned) [Compound W-13] | >100 fold
17 | CC(C)(C)[C@H](NC(=O)C1CCC(=C(F)F)CC1)c1nc(-c2ccc(-c3ccc(-c4c[nH]c([C@@H](NC(=O)C5CCC(=C(F)F)CC5)C(C)(C)C)n4)cc3)cc2)c[nH]1 (some centres unmarked) [Compound N-121] | >100 fold
18 | CC(C)(C)[C@H](NC(=O)C1(NC(=O)CC(F)(F)F)CCCCC1)c1nc(-c2ccc(-c3ccc(-c4c[nH]c([C@@H](NC(=O)C5(NC(=O)CC(F)(F)F)CCCCC5)C(C)(C)C)n4)cc3)cc2)c[nH]1 [Compound W-255] | >100 fold
19 | CC(C)[C@H](NC(=O)C(C)(C)OCCF)c1ncc(-c2ccc(-c3ccc(-c4cnc([C@@H](NC(=O)C(C)(C)OCCF)C(C)C)[nH]4)cc3)cc2)[nH]1 [Compound Y-32] | >100 fold
20 | CC(C)[C@H](NC(=O)N1CCCC1)c1ncc(-c2ccc(-c3ccc(-c4cnc([C@@H](NC(=O)N5CCCC5)C(C)C)[nH]4)cc3)cc2)[nH]1 [Compound S-232] | >100 fold
21 | CC(C)(C)OC(=O)NC1(C(=O)N[C@H](c2nc(-c3ccc(-c4ccc(-c5c[nH]c([C@@H](NC(=O)C6(NC(=O)OC(C)(C)C)CCOCC6)C(C)(C)C)n5)cc4)cc3)c[nH]2)C(C)(C)C)CCOCC1 [Compound W-132] | >100 fold

Row | Structure (SMILES) | Fold-Synergistic 1a (Q30E)
22 | CC1([C@H](NC(=O)C(C)(C)C(C)(C)O)c2nc3ccc(C#Cc4ccc5nc([C@@H](NC(=O)C(C)(C)C(C)(C)O)C6(C)CC6)[nH]c5c4)cc3[nH]2)CC1 [Compound B68] | >100 fold
23 | CC(C)[C@H](NC(=O)c1cnco1)c1ncc(-c2ccc(-c3ccc(-c4cnc([C@@H](NC(=O)c5cnco5)C(C)C)[nH]4)cc3)cc2)[nH]1 [Compound P-94] | >10 fold
24 | CC(=O)N[C@H](c1ncc(-c2ccc(-c3ccc(-c4cnc([C@@H](NC(C)=O)C(C)C)[nH]4)cc3)cc2)[nH]1)C(C)C [Compound S-49] | >10 fold
25 | Cc1ccccc1C(=O)N[C@H](c1ncc(-c2ccc(-c3ccc(-c4cnc([C@@H](NC(=O)c5ccccc5C)C(C)C)[nH]4)cc3)cc2)[nH]1)C(C)C [Compound S-70] | >100 fold
26 | COC(=O)N[C@H](CC(C)C)C(=O)N[C@H](c1ncc(-c2ccc(-c3ccc(-c4cnc([C@@H](NC(=O)[C@@H](CC(C)C)NC(=O)OC)C(C)C)[nH]4)cc3)cc2)[nH]1)C(C)C [Compound P-105] | >100 fold
27 | CC(C)[C@H](NC(=O)C(C)(C)C)c1nc(-c2ccc3c(c2)Cc2cc(-c4c[nH]c([C@@H](NC(=O)C(C)(C)C)C(C)C)n4)ccc2-3)c[nH]1 [Compound N-68] | >100 fold
28 | CC(C)(C)[C@H](NC(=O)C(=O)N1CCCCCC1)c1nc(-c2ccc(-c3ccc(-c4c[nH]c([C@@H](NC(=O)C(=O)N5CCCCCC5)C(C)(C)C)n4)cc3)cc2)c[nH]1 [Compound W-32] | >100 fold
29 | CC(C)(C)[C@H](NC(=O)[C@@]1(N)C[C@@H]1c1ccccc1)c1nc(-c2ccc(-c3ccc(-c4c[nH]c([C@@H](NC(=O)[C@@]5(N)C[C@@H]5c5ccccc5)C(C)(C)C)n4)cc3)cc2)c[nH]1 [Compound W-41] | >100 fold
30 | CC(C)(C)OC(=O)N1CC(F)(F)CC1(C)C(=O)N[C@H](c1nc(-c2ccc(-c3ccc(-c4c[nH]c([C@@H](NC(=O)C5(C)CC(F)(F)CN5C(=O)OC(C)(C)C)C(C)(C)C)n4)cc3)cc2)c[nH]1)C(C)(C)C (single isomer, unassigned) [Compound W-78] | >100 fold
31 | CC(C)(C)[C@H](NC(=O)C(C)(C)C1(O)CCC(F)(F)CC1)c1nc2ccc(C#Cc3ccc4nc([C@@H](NC(=O)C(C)(C)C5(O)CCC(F)(F)CC5)C(C)(C)C)[nH]c4c3)cc2[nH]1.O=C(O)C(F)(F)F [Compound B41A] | >100 fold
32 | CC(C)(C)[C@H](NC(=O)C1(NC(=O)C2CC2)CCCCC1)c1nc(-c2ccc(-c3ccc(-c4c[nH]c([C@@H](NC(=O)C5(NC(=O)C6CC6)CCCCC5)C(C)(C)C)n4)cc3)cc2)c[nH]1 [Compound W-264] | >100 fold
33 | CC(C)(C)[C@H](NC(=O)C1CCCCO1)c1nc(-c2ccc(-c3ccc(-c4c[nH]c([C@@H](NC(=O)C5CCCCO5)C(C)(C)C)n4)cc3)cc2)c[nH]1 (some centres unmarked) [Compound Y-5] | >100 fold
34 | CC(C)[C@H](NC(=O)c1cc(F)cc(F)c1)c1ncc(-c2ccc(-c3ccc(-c4cnc([C@@H](NC(=O)c5cc(F)cc(F)c5)C(C)C)[nH]4)cc3)cc2)[nH]1 [Compound Y-23] | >100 fold
35 | CC(C)[C@H](NC(=O)N(c1ccccc1)c1ccccc1)c1nc(-c2ccc(-c3ccc(-c4c[nH]c([C@@H](NC(=O)N(c5ccccc5)c5ccccc5)C(C)C)n4)cc3)cc2)c[nH]1 [Compound S-227] | >100 fold
36 | CC(C)[C@H](NC(=O)C1(C)COC1)c1ncc(-c2ccc(-c3ccc(-c4cnc([C@@H](NC(=O)C5(C)COC5)C(C)C)[nH]4)cc3)cc2)[nH]1 [Compound P-84] | >100 fold
37 | CC(C)CC(=O)N1CCC[C@H]1c1ncc(-c2ccc(-c3ccc(-c4cnc([C@@H](NC(=O)C(C)(C)C)C(C)C)[nH]4)cc3)cc2)[nH]1 [Compound Y-14] | >100 fold
38 | CC(C)[C@H](NC(=O)c1c(F)cccc1Cl)c1ncc(-c2ccc(-c3ccc(-c4cnc([C@@H](NC(=O)c5c(F)cccc5Cl)C(C)C)[nH]4)cc3)cc2)[nH]1 [Compound S-6] | >100 fold
39 | O=C(C(=O)N1C[C@H](O)C[C@H]1c1nc(-c2ccc(-c3ccc(-c4c[nH]c([C@@H]5C[C@@H](O)CN5C(=O)C(=O)N5CCC(F)(F)CC5)n4)cc3)cc2)c[nH]1)N1CCC(F)(F)CC1 [Compound L-142] | >100 fold
40 | C[C@H]1CCN(C(=O)C(=O)N(C2CC2)C2CC2)C1c1nc(-c2ccc(-c3ccc(-c4c[nH]c(C5[C@@H](C)CCN5C(=O)C(=O)N(C5CC5)C5CC5)n4)cc3)cc2)c[nH]1 (some centres unmarked) [Compound W-244] | >100 fold
41 | CC(C)[C@H](NC(=O)c1ccccc1F)c1nc(-c2ccc(-c3ccc(-c4c[nH]c([C@@H](NC(=O)c5ccccc5F)C(C)C)n4)c(F)c3)cc2)c[nH]1.O=C(O)C(F)(F)F [Compound N-92] | >100 fold
